For orientation: Ki means a measure of affinity in units of concentration, obtained from inhibition or displacement.

The target in assay [1] is Carbonic anhydrase 13 (Mus musculus, UniProt Q9D6N1). The assay is described as follows: Inhibition of mouse recombinant carbonic anhydrase 13-catalyzed CO2 hydration by stopped flow assay.
The target in assay [2] is Carbonic anhydrase 1 (Homo sapiens, UniProt P00915). The experiment in a line: Inhibition of human recombinant carbonic anhydrase 1-catalyzed CO2 hydration by stopped flow assay.
Assay [3] addresses Carbonic anhydrase 7 (Homo sapiens, UniProt P43166). The experiment in a line: Inhibition of human recombinant carbonic anhydrase 7-catalyzed CO2 hydration by stopped flow assay.
Assay [4] concerns the target Carbonic anhydrase 2 (Homo sapiens, UniProt P00918). The experiment in a line: Inhibition of human recombinant carbonic anhydrase 2-catalyzed CO2 hydration by stopped flow assay.

Sequence of Carbonic anhydrase 13 (Q9D6N1 whole entry): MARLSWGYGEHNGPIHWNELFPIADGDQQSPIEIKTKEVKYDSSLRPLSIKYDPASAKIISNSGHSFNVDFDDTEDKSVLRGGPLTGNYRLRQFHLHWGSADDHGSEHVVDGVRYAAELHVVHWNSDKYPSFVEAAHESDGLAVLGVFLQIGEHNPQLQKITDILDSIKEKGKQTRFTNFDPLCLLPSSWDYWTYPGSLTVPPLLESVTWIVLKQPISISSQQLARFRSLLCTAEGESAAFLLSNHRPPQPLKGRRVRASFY
Sequence of Carbonic anhydrase 1 (P00915 whole entry): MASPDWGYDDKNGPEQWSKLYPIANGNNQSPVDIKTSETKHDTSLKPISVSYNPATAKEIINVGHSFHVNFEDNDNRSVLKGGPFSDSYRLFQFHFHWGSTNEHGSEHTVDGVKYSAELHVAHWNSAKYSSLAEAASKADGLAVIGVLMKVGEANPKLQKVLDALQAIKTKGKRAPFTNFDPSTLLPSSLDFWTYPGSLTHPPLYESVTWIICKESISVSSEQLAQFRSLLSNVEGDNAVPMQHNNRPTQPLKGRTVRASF
Sequence of Carbonic anhydrase 7 (P43166 whole entry): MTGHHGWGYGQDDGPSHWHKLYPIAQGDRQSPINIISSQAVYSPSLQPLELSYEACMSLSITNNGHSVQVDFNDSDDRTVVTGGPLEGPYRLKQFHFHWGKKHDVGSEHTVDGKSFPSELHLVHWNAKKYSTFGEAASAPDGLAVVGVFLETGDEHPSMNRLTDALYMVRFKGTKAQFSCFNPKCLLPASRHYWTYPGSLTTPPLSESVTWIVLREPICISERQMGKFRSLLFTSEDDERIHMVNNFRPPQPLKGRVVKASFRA

In the case of `O=[Se](=O)(O)O` [SODIUM SELENATE], the Ki in assay [1] amounted to 484000 µM; in assay [2], 118000 µM; in assay [3] it was 215000 µM.
With `N#C[SeH]` [SODIUM SELENOCYANATE], the Ki turned out to be 26500 µM in assay [1], 85 µM in assay [2] and 1100 µM in assay [3].
Regarding `O=S(=O)(O)NS(=O)(=O)O` [SODIUM IMINODISULFONATE], the Ki is 980 µM in assay [1], 310 µM in assay [2] and 39100 µM in assay [3].
On to `O=S(=O)(O)OOS(=O)(=O)O` [SODIUM PERSULFATE], for which the figures for the Ki in assay [1] and in assay [3] were 4310 µM and 3110 µM, respectively.
Turning to `O=S(=O)(O)OS(=O)(=O)O` [SODIUM PYROSULFATE], the Ki in assay [1] turned out to be 710 µM; in assay [2] it was 990 µM; in assay [4], 970 µM; in assay [3], 760 µM.
For the compound `O=P(O)(O)OP(=O)(O)O` [SODIUM PYROPHOSPHATE], the Ki in assay [1] is 730 µM; in assay [2], 25800 µM; in assay [3], 870 µM.
Take `CCN(CC)C(=S)S` [DITIOCARB SODIUM]: the Ki in assay [1] worked out at 56 µM; in assay [2], 0.79 µM; in assay [3] it was 1470 µM.
The like results for `S=C(S)S` [SODIUM CARBONOTRITHIOATE] were, in that order, 430 µM, 8.7 µM and 36200 µM.
The like results for `O=[Te](=O)(O)O` [SODIUM TELLURATE] were, in that order, 380 µM, 660 µM and 460 µM.

The values are drawn from ChEMBL document CHEMBL1153947, “Carbonic anhydrase inhibitors. Inhibition of cytosolic isoforms I, II, III, VII and XIII with less investigated inorganic anions” (Bioorg Med Chem Lett, 2009).
